# Experimental data reported in patent US20200367543A1, “SWEETENER AND FLAVOR COMPOSITIONS, METHODS OF MAKING AND METHODS OF USE THEREOF” (EPC Natural Products Co., Ltd., priority 2018, published 2020).
# Like-named read-outs stand apart in the source and are kept apart here.
# Assays:
# [1] = Sensory evaluation of GSGs and SGs, thaumatin, NHDC and combinations (Ex. 255); conditions: combinations of EPCalin and NHDC dissolved in water
# Method: 4.5 ppm Thaumatin (equivalent to 10 ppm EPCalin) was dissolved in water. Increasing amounts of NHDC (1-5 ppm) were added to the solution and the sensory properties were evaluated.
# 50 ppm (GSGs and SGs) were dissolved in water. Increasing amounts of NHDC (1-5 ppm) were added to the solution and the sensory properties were evaluated.
# 50 ppm (GSGs and SGs) and 4.5 ppm Thaumatin (equivalent to 10 ppm EPCalin) were dissolved in water. Increasing amounts of NHDC (1-5 ppm) were added to the solution and the sensory properties were evaluated.
# [2] = compared to sucrose; cited from earlier work
# [3] = cited from earlier work; for times sweeter than sucrose: sweetness depends on the tested concentration compared with sucrose; for natural sweetness, times of that of sugar: constituents of monk fruit juice or extract; for Sweetness by weight: compared to sucrose
# [4] = Kinetics of reaction in dependence of pH-conditions (degradation of Phe and Reb-A, Gluc, Xyl, Suc) by HPLC/MS
# Method: Quantitative evaluation was performed using external standardization.
# Kinetics of Reaction in Dependence of pH-Conditions
# [5] = Assay to test reducing power, active iron-III reduction (Ex. 64); conditions: 10 mM, 100° C., 0-5.0 h, diluted 1:10
# [6] = DPPH radical-scavenging activity (Ex. 65); conditions: 10 mM, 100° C., 0-5.0 h, diluted 1:10
# Method: 1 mg 1,1-Diphenyl-2-picrylhydrazyl radical (DPPH)/ml ethanol, dilution to assay concentration were prepared in ethanol (40 μg/mL); Calibration samples were prepared with Ascorbic acid in a concentration of 0-10 μg/mL; as a negative control sample, water was used.
# Samples in aqueous solution were used as such or diluted with water.
# A 0.1 ml sample (or calibration standard) was mixed with 3.9 ml solution of DPPH
# ([…]) and reacted while protected from light at room temperature for 30 min. Absorbance was determined at 517 nm against ethanol.
# 10 mM of amino acid and/or 10 mM sugar were dissolved in 10 ml 0.1 mM KH2PO4-buffer, pH=7.8.
# The samples were kept at 100° C. in sealed glass vials (Pyrex 15 ml with screw caps) for 0 (before reaction), 2.5 or 5.0 hours. Thereafter the samples were transferred to an ice water bath and cooled down to room temperature. These samples were diluted 1:10 and used for the test assay for anti-oxidant potential.
molecule,measurement,setting,value
COc1ccc(CCC(=O)c2c(O)cc(O[C@@H]3O[C@H](CO)[C@@H](O)[C@H](O)[C@H]3O[C@@H]3O[C@@H](C)[C@H](O)[C@@H](O)[C@H]3O)cc2O)cc1O [10 ppm NHDC],Sensory evaluation,[1],"Sweet, steep onset of sweetness, no lingering"
OC[C@@H](O)[C@@H](O)CO [Erythritol],Energy density,[2],0.05
OCC(O)CO [Glycerol],Energy density,[2],1.075
CC1(C)[C@@H](O[C@H]2O[C@H](C(=O)O)[C@@H](O)[C@H](O)[C@H]2O[C@@H]2O[C@H](C(=O)O)[C@@H](O)[C@H](O)[C@H]2O)CC[C@]2(C)[C@H]3C(=O)C=C4[C@@H]5C[C@@](C)(C(=O)O)CC[C@]5(C)CC[C@@]4(C)[C@]3(C)CC[C@@H]12 [Glycyrrhizin],times sweeter than sucrose,[3],30 to 50 times
OC[C@@H](O)[C@@H](O[C@@H]1O[C@H](CO)[C@H](O)[C@H](O)[C@H]1O)[C@H](O)[C@@H](O)CO [Lactitol],Energy density,[2],0.5
O=C(O)[C@H](Cc1ccccc1)NCC(=O)[C@@H](O)[C@H](O)[C@H](O)CO [MRI (Phe-Glu)],% formation from degraded Phe,"[4]; reaction of Phe and Suc, pH = 5.5, n.d. = not detected",<0.10%
same,% formation from degraded Phe,"[4]; reaction of Phe and Suc, pH = 7.0, n.d. = not detected",0.54%
same,% formation from degraded Phe,"[4]; reaction of Phe and Suc, pH = 8.5, n.d. = not detected",0.84%
C=C1CC23CC[C@H]4[C@@](C)(CCC[C@@]4(C)C(=O)OC4O[C@H](C(=O)N[C@H](Cc5ccccc5)C(=O)O)[C@@H](O)[C@H](O)[C@H]4O)[C@@H]2CC(O[C@@H]2O[C@H](CO)[C@@H](O)C(O[C@@H]4O[C@H](CO)[C@@H](O)[C@H](O)[C@H]4O)[C@H]2O[C@@H]2O[C@H](CO)[C@@H](O)[C@H](O)[C@H]2O)C1C3 (stereo partly drawn) [MRI (Phe-Reb-A)],% formation from degraded Phe,"[4]; reaction of Phe and Reb-A, pH = 5.5, MRI (Phe-Reb-A): all possible isomers included",10.4%
same,% formation from degraded Phe,"[4]; reaction of Phe and Reb-A, pH = 7.0, MRI (Phe-Reb-A): all possible isomers included",11.3%
same,% formation from degraded Phe,"[4]; reaction of Phe and Reb-A, pH = 8.5, MRI (Phe-Reb-A): all possible isomers included",14.7%
OC[C@@H](O)[C@@H](O[C@H]1O[C@H](CO)[C@@H](O)[C@H](O)[C@H]1O)[C@H](O)[C@@H](O)CO [Maltitol],Energy density,[2],0.525
OC[C@@H](O)[C@@H](O)[C@H](O)[C@H](O)CO [Mannitol],"natural sweetness, times of that of sugar",[3],0.55-0.65 times
same,Energy density,[2],0.4
"COc1ccc(CCC(=O)c2c(O)cc(O[C@@H]3O[C@H](CO)[C@@H](O)[C@H](O)[C@H]3O[C@@H]3O[C@@H](C)[C@H](O)[C@@H](O)[C@H]3O)cc2O)cc1O [NHDC, Neohesperidin dihydrochalcone]",times sweeter than sugar,[3]; at threshold concentrations,1500-1800 times
same,times sweeter than sugar,[3]; weight-for-weight,about 340 times
"C=C1C[C@@]23CC[C@H]4[C@@](C)(CCC[C@@]4(C)C(=O)O[C@@H]4O[C@H](CO)[C@@H](O)[C@H](O)[C@H]4O)[C@@H]2CC[C@]1(O[C@@H]1O[C@H](CO)[C@@H](O)[C@H](O[C@@H]2O[C@H](CO)[C@@H](O)[C@H](O)[C@H]2O)[C@H]1O[C@@H]1O[C@H](CO)[C@@H](O)[C@H](O)[C@H]1O)C3 [Reb-A, Rebaudioside A]",anti-oxidant properties (active iron-III reduction),[5],substantial anti-oxidant properties
same,anti-oxidant properties (radical scavenging),[6],substantial anti-oxidant properties
OC[C@@H](O)[C@@H](O)[C@H](O)[C@@H](O)CO [Sorbitol],Energy density,[2],0.65
O=C(CO)[C@@H](O)[C@@H](O)[C@H](O)CO [Tagatose],Energy density,[2],0.38
C[C@H](CC[C@@H](O[C@@H]1O[C@H](CO)[C@@H](O)[C@H](O)[C@H]1O[C@@H]1O[C@H](CO)[C@@H](O)[C@H](O)[C@H]1O)C(C)(C)O)[C@H]1CC[C@@]2(C)[C@H]3CC=C4[C@@H](CC[C@H](O[C@@H]5O[C@H](CO[C@@H]6O[C@H](CO)[C@@H](O)[C@H](O)[C@H]6O)[C@@H](O)[C@H](O)[C@H]5O)C4(C)C)[C@]3(C)[C@H](O)C[C@]12C [mogroside IV],"natural sweetness, times of that of sugar",[3],126 times
C[C@H](CC[C@@H](O[C@@H]1O[C@H](CO[C@@H]2O[C@H](CO)[C@@H](O)[C@H](O)[C@H]2O)[C@@H](O)[C@H](O)[C@H]1O[C@@H]1O[C@H](CO)[C@@H](O)[C@H](O)[C@H]1O)C(C)(C)O)[C@H]1CC[C@@]2(C)[C@@H]3CC=C4[C@@H](CC[C@H](O[C@@H]5O[C@H](CO[C@@H]6O[C@H](CO)[C@@H](O)[C@H](O)[C@H]6O)[C@@H](O)[C@H](O)[C@H]5O)C4(C)C)[C@]3(C)[C@H](O)C[C@]12C [mogroside V],"natural sweetness, times of that of sugar",[3],256-344 times
O=S(=O)([O-])NC1CCCCC1.[Na+] [sodium cyclamate],times sweeter than sucrose,[3],about 30 times
OC[C@H]1O[C@H](O[C@]2(CCl)O[C@H](CCl)[C@@H](O)[C@@H]2O)[C@H](O)[C@@H](O)[C@H]1Cl [sucralose],times sweeter than sucrose,[3],about 600 times
Fructo-oligosaccharide,Sweetness by weight,[3],0.3-0.5
Isomalt,Energy density,[2],0.5
Isomalto-oligosaccharide,Sweetness by weight,[3],0.5
rebaudioside B [Reb B],% formation from degraded Reb-A,"[4]; reaction of Phe and Reb-A, pH = 5.5",23.1%
same,% formation from degraded Reb-A,"[4]; reaction of Phe and Reb-A, pH = 7.0",22.7%
same,% formation from degraded Reb-A,"[4]; reaction of Phe and Reb-A, pH = 8.5",19.1%
